Test: three-component macrocyclisation: bis(chloroacetamide) (1 eq) + diamine (1.2 eq) + CS2 (8 eq); in situ dithiocarbamate formation then S-alkylation (C-S bond, Cl displacement) at both ends, metal-free, no added base, 15 min
Conditions: the molecule shown is the open-chain precursor, PEG-200, 400.0 mM, 25.0 °C, 0.25 h

## O=C(CCl)NCCCNC(=O)CSC(=S)NCCCCCCNC(=S)[S-] [5]
21-membered ring
  ring closure, isolated yield: 74.7%

## CCCCN(CCN(CCCC)C(=S)SCC(=O)N(C)CCN(C)C(=O)CCl)C(=S)[S-] [1]
16-membered ring
  ring closure, isolated yield: 61.3%

## CN(CCN(C)C(=S)SCC(=O)NCCN(C(=O)CCl)c1cccc2ccccc12)C(=S)[S-] [7]
16-membered ring
  ring closure, isolated yield: 84.6%

## O=C(CCl)NCCCNC(=O)CSC(=S)NCCCNC(=S)[S-] [4]
18-membered ring
  ring closure, isolated yield: 85.3%

## CN(CCN(C)C(=O)CSC(=S)N(C)CCN(C)C(=S)[S-])C(=O)CCl [2]
16-membered ring
  ring closure, isolated yield: 24.1%

## O=C(CCl)NCCCNC(=O)CSC(=S)N(CCN(Cc1ccccc1)C(=S)[S-])Cc1ccccc1 [6]
17-membered ring
  ring closure, isolated yield: 69.4%

## CN(CCN(C)C(=O)CSC(=S)NCCCNC(=S)[S-])C(=O)CCl [3]
17-membered ring
  ring closure, isolated yield: 78.5%
